Test results published in patent US7205295B2, “Benzoxazin-3-ones and derivatives thereof as therapeutic agents” (Warner-Lambert Company LLC, priority 2002, dated 2007).
pIC50: −log10 of the molar value.

How the values were obtained:
[1] = molecular target: T1, PI3Kγ (p101/p110γ protein) (Homo sapiens, UniProt P48736); assay: PI3Kγ In Vitro Kinase Assay; type: biochemical; conditions: purified recombinant p101/p110γ with G protein β1/γ2 subunits; 20 μM ATP, 25 μM PIP2; 20 minutes at room temperature
T1 construct: HA; made in house; host or cells: Spodoptera frugiperda (Sf9) cells, baculovirus co-infection
Procedure, shortened: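 Sf9-expressed, purified human p101/p110γ (2.7 nM) was activated by Gβ1/γ2 (57.7 nM) and reacted with 20 μM ATP plus [γ-32P]ATP on PIP2 (25 μM)/PE (300 μM) micelles with 10 mM MgCl2 in HEPES buffer. Reactions ran 20 min at room temperature. Filter-captured radiolabeled PIP3 was counted by scintillation.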

T1 sequence (P48736 whole entry, species assumed): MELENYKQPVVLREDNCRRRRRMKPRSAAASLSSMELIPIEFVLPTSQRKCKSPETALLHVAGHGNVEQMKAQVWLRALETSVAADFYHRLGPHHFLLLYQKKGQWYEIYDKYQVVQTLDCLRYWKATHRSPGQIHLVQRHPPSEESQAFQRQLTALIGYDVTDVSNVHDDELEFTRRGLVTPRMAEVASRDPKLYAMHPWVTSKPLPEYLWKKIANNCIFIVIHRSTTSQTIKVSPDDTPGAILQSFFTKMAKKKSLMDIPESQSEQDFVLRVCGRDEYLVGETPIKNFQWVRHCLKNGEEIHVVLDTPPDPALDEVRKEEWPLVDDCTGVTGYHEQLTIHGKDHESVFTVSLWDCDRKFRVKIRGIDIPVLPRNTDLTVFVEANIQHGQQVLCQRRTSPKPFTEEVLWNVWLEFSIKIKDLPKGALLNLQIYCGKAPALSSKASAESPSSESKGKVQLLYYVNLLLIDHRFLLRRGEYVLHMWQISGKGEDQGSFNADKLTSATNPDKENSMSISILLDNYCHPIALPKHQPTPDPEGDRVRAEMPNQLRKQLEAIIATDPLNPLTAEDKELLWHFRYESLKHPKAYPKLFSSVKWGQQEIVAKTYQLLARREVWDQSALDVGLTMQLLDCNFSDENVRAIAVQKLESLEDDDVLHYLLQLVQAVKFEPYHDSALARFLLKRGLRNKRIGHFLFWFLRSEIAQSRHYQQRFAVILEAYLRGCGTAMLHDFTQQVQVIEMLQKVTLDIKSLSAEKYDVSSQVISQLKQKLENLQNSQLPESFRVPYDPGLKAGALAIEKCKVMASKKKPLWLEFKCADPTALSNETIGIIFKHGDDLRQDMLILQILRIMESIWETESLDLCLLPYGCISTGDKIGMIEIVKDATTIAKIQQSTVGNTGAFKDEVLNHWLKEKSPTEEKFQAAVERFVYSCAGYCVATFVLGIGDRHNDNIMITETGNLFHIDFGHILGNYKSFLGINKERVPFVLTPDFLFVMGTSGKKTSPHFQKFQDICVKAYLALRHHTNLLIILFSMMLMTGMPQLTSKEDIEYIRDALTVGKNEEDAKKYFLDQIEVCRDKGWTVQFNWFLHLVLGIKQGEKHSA
T1 sequence (Q8WYR1 whole entry partner, species assumed): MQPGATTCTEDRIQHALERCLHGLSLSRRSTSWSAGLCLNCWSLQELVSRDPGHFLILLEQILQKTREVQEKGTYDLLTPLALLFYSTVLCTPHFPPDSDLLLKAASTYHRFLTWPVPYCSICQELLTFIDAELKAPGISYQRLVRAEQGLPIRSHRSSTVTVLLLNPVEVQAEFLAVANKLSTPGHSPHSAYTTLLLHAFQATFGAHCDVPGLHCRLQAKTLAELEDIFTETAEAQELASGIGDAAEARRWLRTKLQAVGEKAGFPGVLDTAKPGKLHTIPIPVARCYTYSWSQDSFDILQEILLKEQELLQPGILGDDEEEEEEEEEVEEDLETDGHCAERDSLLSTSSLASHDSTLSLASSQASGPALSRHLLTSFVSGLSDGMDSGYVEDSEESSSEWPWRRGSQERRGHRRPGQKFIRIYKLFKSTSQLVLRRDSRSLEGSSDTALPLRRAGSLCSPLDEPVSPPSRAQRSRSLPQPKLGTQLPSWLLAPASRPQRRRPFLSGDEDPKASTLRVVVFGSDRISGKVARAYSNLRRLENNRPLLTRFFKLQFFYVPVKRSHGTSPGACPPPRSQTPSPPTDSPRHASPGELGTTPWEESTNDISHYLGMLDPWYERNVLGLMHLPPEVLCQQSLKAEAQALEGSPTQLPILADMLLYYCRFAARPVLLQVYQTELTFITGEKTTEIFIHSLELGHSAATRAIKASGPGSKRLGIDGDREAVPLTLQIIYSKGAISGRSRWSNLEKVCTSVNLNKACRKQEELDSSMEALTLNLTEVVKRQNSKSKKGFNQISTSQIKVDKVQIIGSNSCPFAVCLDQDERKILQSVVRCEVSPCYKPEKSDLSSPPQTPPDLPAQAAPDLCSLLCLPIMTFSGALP

melting point [°C]	pIC50 [1]	SMILES
233 to 236	8.52	COc1cccc(CCN2C(=O)COc3ccc(C=C4SC(=S)NC4=O)cc32)c1 [Example 137, 4-[2-(3-Methoxy-phenyl)-ethyl]-6-(4-oxo-2-thioxo-thiazolidin-5-ylidenemethyl)-4H-1,4-benzoxazin-3-one]
267 to 269	8.00	Cc1ccc(CCN2C(=O)COc3ccc(C=C4SC(=S)NC4=O)cc32)cc1 [Example 138, 6-(4-Oxo-2-thioxo-thiazolidin-5-ylidenemethyl)-4-(2-p-tolyl-ethyl)-4H-1,4-benzoxazin-3-one]
> 300	8.70	O=C1NC(=S)SC1=Cc1ccc2c(c1)N(OCc1ccc(C(F)(F)F)cc1)C(=O)CO2 [Example 207, 6-(4-Oxo-2-thioxo-thiazolidin-5-ylidenemethyl)-4-(4-trifluoromethyl-benzyloxy)-4H-benzo[1,4]oxazin-3-one]
249 to 250	8.70	O=C1NC(=S)SC1=Cc1ccc2c(c1)N(OCC1CCCCC1)C(=O)CO2 [Example 208, 4-Cyclohexylmethoxy-6-(4-oxo-2-thioxo-thiazolidin-5-ylidenemethyl)-4H-benzo[1,4]oxazin-3-.one]
> 300	7.13	CC(C)(C)c1cc(CON2C(=O)COc3ccc(C=C4SC(=S)NC4=O)cc32)cc(C(C)(C)C)n1 [Example 209, 4-(2,6-Di-tert-butyl-pyridin-4-ylmethoxy)-6-(4-oxo-2-thioxo-thiazolidin-5-ylidenemethyl)-4H-benzo[1,4]oxazin-3-one]
